According to US20110282056A1, “PROTEIN KINASE INHIBITORS AND USE THEREOF” (priority 2008, published 2011):

Assays:
Type in all cases: biochemical
Flt3 = target: T1, Flt3 (Homo sapiens, UniProt P36888); experiment: Flt3 enzyme activity assay (Caliper LC3000 mobility shift); conditions: 350 uM ATP (Km), 3 nM Flt3, 90 minutes at RT
T1 construct: purchased BPS Bioscience; San Diego, Calif; 40225
T1 sequence (P36888 27-993): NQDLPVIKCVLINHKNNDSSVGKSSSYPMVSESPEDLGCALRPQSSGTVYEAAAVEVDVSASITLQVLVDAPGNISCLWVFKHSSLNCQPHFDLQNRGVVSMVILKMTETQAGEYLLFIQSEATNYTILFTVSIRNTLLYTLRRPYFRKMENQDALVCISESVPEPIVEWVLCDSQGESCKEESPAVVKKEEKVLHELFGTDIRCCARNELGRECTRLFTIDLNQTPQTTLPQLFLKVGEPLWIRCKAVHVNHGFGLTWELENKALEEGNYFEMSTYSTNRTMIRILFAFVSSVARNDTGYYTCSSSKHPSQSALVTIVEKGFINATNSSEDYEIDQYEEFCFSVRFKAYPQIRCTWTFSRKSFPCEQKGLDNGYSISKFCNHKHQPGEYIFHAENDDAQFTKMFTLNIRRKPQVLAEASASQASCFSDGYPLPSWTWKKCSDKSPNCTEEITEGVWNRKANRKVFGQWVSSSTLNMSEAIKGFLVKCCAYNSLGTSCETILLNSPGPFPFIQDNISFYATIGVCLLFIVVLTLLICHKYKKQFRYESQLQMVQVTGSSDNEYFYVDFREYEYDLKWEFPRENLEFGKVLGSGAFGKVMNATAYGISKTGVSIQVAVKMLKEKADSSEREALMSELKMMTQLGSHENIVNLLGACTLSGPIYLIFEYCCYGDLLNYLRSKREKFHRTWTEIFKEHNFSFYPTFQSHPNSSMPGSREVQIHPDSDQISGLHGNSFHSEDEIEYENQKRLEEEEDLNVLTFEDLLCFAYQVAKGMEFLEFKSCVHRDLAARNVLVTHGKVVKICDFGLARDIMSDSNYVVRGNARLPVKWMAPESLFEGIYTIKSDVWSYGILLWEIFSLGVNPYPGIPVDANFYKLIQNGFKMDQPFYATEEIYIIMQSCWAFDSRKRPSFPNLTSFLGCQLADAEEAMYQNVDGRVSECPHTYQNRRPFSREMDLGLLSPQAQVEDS
Method: (§1) Enzyme activity for VEGFR3, VEGFR2 and Flt3 were measured on the Caliper Life Sciences LC3000 (Hopkinton, Mass.). The system utilizes the principle of electroosmotic flow to separate and quantify the amount of phosphorylated-Fluorescein-labelled-peptide (product) from unphosphorylated-Fluorescein-labelled peptide (substrate). The amount of product and substrate are determined by measuring the peak heights from the electropherogram. The enzyme activity is then quantified by dividing the amount of product by the sum of the product and substrate. The inhibitory activity of a sample is measured by comparing the enzyme activity in the presence of sample versus the enzyme activity in the presence of dimethylsufoxide (DMSO). Specific assay conditions for each enzyme are listed below:
(§2) Flt3 assay: The peptide substrate at 1 uM (FITC-AHA-UEAIYAAPFAKKK-CONH2; synthesized at Tufts University, Boston, Mass.) was incubated with 350 uM of ATP, corresponding to the Michaelis-Menten (Km) constant of the enzyme/substrate reaction, and 3 nM of Flt3 (BPS Bioscience; San Diego, Calif.; Cat. No. 40225) for 90 minutes at RT. After 90 minutes, the reaction was stopped by the addition of 10 mM EDTA. The substrate and product were then separated on the LC3000.

VEGFR3 = target: T2, VEGFR3 (Homo sapiens, UniProt P35916); experiment: VEGFR3 enzyme activity assay (Caliper LC3000 mobility shift); conditions: 400 uM ATP (Km), 0.4 nM VEGFR3, 90 minutes at RT
T2 construct: purchased Millpore Corp. (Millipore) 14-681
T2 sequence (P35916 25-1363): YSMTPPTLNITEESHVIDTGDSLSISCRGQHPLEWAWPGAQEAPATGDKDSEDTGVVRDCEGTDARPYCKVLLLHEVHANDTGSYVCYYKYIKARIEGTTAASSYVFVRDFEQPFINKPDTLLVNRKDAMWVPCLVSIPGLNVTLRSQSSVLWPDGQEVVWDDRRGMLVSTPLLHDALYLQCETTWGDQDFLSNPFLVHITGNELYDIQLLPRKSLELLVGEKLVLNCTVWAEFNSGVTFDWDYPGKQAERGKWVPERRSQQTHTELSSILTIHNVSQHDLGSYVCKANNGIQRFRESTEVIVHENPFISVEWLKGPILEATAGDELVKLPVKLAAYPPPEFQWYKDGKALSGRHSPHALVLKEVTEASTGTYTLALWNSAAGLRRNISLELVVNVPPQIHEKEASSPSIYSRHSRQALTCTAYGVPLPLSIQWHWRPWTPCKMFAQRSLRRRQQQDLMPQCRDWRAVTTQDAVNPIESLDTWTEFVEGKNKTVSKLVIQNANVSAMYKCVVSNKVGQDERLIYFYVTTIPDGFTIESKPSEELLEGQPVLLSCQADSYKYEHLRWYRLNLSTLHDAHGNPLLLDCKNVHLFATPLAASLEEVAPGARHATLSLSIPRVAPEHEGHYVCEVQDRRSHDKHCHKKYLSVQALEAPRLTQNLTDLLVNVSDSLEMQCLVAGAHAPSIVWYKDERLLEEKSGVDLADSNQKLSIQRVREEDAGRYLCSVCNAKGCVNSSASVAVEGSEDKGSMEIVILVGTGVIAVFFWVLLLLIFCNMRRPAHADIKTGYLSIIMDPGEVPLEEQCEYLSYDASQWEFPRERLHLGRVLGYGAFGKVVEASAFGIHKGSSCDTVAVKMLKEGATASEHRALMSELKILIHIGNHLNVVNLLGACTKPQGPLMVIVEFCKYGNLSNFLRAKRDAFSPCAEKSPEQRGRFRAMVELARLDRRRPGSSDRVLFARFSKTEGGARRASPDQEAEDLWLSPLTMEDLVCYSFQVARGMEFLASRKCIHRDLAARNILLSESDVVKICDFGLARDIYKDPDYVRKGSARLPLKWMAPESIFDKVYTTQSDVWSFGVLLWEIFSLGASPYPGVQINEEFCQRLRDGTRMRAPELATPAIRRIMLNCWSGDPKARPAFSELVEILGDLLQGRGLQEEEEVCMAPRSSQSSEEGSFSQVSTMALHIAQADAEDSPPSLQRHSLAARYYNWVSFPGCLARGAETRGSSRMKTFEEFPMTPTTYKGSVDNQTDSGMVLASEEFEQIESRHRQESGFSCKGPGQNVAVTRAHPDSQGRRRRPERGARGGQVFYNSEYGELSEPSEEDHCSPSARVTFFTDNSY
Method: as §1
VEGFR3 assay: The peptide substrate at 1 uM (FITC-KKKKEEIYFFF-CONH2; synthesized at Tufts University, Boston, Mass.) was incubated with 400 uM of ATP, corresponding to the Michaelis-Menten (Km) constant of the enzyme/substrate reaction, and 0.4 nM of VEGFR3 (Millpore Corp., Cat. No. 14-681) for 90 minutes at RT. After 90 minutes, the reaction was stopped by the addition of 10 mM EDTA. The substrate and product were then separated on the LC3000.

VEGFR2 = target: T3, VEGFR2 (Homo sapiens, UniProt P35968); experiment: VEGFR2 enzyme activity assay (Caliper LC3000 mobility shift); conditions: 160 uM ATP (Km), 1 nM VEGFR2, 90 minutes at RT
T3 construct: purchased BPS Bioscience; San Diego, Calif; 40301
T3 sequence (P35968 20-1356): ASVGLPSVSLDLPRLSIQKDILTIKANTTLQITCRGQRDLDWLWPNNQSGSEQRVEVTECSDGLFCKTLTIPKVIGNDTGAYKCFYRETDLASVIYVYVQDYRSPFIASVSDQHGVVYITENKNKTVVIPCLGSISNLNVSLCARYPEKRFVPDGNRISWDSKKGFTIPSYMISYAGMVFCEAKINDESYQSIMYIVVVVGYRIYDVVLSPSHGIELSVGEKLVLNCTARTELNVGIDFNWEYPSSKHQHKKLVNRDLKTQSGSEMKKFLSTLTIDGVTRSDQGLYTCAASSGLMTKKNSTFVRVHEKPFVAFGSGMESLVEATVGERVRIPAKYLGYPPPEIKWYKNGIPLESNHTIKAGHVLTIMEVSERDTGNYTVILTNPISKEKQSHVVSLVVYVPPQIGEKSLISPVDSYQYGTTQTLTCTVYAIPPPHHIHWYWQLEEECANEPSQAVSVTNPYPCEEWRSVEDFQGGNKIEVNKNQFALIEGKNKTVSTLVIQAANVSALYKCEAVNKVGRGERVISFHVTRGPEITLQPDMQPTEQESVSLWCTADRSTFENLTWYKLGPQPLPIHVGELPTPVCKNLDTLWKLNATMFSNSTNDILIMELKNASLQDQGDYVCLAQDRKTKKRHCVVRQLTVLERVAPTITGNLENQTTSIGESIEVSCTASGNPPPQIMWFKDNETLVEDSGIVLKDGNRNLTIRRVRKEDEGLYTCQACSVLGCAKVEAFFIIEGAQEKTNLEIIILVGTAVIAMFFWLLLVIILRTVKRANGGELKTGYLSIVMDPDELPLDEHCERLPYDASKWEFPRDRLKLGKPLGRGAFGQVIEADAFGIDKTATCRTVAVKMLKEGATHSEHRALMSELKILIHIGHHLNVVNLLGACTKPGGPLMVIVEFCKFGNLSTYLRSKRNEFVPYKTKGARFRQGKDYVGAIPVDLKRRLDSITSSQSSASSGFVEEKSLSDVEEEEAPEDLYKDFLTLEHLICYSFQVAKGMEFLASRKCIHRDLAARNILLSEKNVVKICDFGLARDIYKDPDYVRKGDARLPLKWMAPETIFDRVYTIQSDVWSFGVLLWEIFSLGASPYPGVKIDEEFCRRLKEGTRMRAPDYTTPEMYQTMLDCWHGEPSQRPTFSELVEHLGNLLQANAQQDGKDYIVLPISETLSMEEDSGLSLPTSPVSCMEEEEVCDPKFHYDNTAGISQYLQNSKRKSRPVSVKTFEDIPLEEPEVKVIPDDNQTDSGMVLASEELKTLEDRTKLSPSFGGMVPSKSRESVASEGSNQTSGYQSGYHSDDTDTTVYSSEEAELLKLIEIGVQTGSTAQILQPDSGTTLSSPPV
Method: as §1
as §2, with “VEGFR2 assay:” for “Flt3 assay:”, “uM (5-FL-EEPLYWSFPAKKK-CONH2;” for “uM (FITC-AHA-UEAIYAAPFAKKK-CONH2;”, “with 160” for “with 350”, “and 1” for “and 3”, “of VEGFR2” for “of Flt3”, “No. 40301)” for “No. 40225)”

How did the IC50 (Flt3) turn out when `Fc1cccc(C#Cc2ccnc3[nH]ccc23)c1` [compound 59] was run?
The IC50 was greater than 1000 nM.

What about the IC50 (VEGFR3) of the same molecule?
The IC50 was 100 to 1000 nM.

And the IC50 (VEGFR2)?
Its IC50 is greater than 1000 nM.

Which IC50 (Flt3) does the source give for `C(#Cc1cnc2[nH]ccc2c1)c1ccccc1` [compound 108] here?
Its IC50 is greater than 1000 nM.

And the IC50 (VEGFR3)?
The IC50 was greater than 1000 nM.

And the IC50 (VEGFR2)?
Its IC50 is greater than 1000 nM.

How did the IC50 (Flt3) turn out when `C(#Cc1ccnc2[nH]ccc12)c1cccnc1` [compound 82] was run?
Its IC50 is greater than 1000 nM.

What about the IC50 (VEGFR3) of the same molecule?
Its IC50 is greater than 1000 nM.

What about the IC50 (VEGFR2) of the same molecule?
The IC50 was greater than 1000 nM.

What does the source list for `COC(=O)c1cccc(C#Cc2ccnc3[nH]ccc23)n1` [compound 106]?
IC50 (Flt3): > 1000 nM; IC50 (VEGFR3): > 1000 nM; IC50 (VEGFR2): > 1000 nM

For `Cc1cc(C)cc(C#Cc2ccnc3[nH]ccc23)c1` [compound 77], which IC50 (Flt3) is on record?
Its IC50 is greater than 1000 nM.

What about the IC50 (VEGFR3) of the same molecule?
The IC50 was greater than 1000 nM.

What about the IC50 (VEGFR2) of the same molecule?
The IC50 was greater than 1000 nM.

How did the IC50 (Flt3) turn out when `CS(=O)(=O)c1ccc(C#Cc2ccnc3[nH]ccc23)cc1` [compound 81] was run?
The IC50 was greater than 1000 nM.

And the IC50 (VEGFR3)?
The IC50 was greater than 1000 nM.

And the IC50 (VEGFR2)?
Its IC50 is greater than 1000 nM.

Which IC50 (Flt3) does the source give for `C(#Cc1ccnc2[nH]ccc12)c1ccc(-c2cnco2)cc1` [compound 119] here?
The IC50 was greater than 1000 nM.

And the IC50 (VEGFR3)?
Its IC50 is greater than 1000 nM.

And the IC50 (VEGFR2)?
The IC50 was greater than 1000 nM.

How did the IC50 (Flt3) turn out when `C(#Cc1ncnc2sc3c(c12)CCCC3)c1ccccc1` [compound 97] was run?
The IC50 was greater than 1000 nM.

And the IC50 (VEGFR3)?
The IC50 was greater than 1000 nM.

What about the IC50 (VEGFR2) of the same molecule?
Its IC50 is greater than 1000 nM.

How did the IC50 (Flt3) turn out when `FC(F)(F)c1ccccc1C#Cc1cnc2[nH]ccc2c1` [compound 105] was run?
The IC50 was greater than 1000 nM.

What about the IC50 (VEGFR3) of the same molecule?
Its IC50 is greater than 1000 nM.

What about the IC50 (VEGFR2) of the same molecule?
Its IC50 is greater than 1000 nM.

Which results are given for `Fc1ccc(C#Cc2ccnc3[nH]ccc23)cc1` [compound 80]?
IC50 (Flt3): > 1000 nM; IC50 (VEGFR3): > 1000 nM; IC50 (VEGFR2): > 1000 nM

How did the IC50 (Flt3) turn out when `O=C(NCc1ccccc1C#Cc1ccnc2[nH]ccc12)C(F)(F)F` [compound 56] was run?
The IC50 was greater than 1000 nM.

And the IC50 (VEGFR3)?
Its IC50 is 100 to 1000 nM.

And the IC50 (VEGFR2)?
The IC50 was greater than 1000 nM.

For `CC(=O)c1ccc(C#Cc2ccnc3[nH]ccc23)nc1` [compound 115], which IC50 (Flt3) is on record?
Its IC50 is greater than 1000 nM.

And the IC50 (VEGFR3)?
The IC50 was greater than 1000 nM.

And the IC50 (VEGFR2)?
Its IC50 is greater than 1000 nM.

Which results are given for `COc1cc(C#Cc2ccnc3[nH]ccc23)cc(OC)c1` [compound 74]?
IC50 (Flt3): > 1000 nM; IC50 (VEGFR3): > 1000 nM; IC50 (VEGFR2): > 1000 nM

Which IC50 (Flt3) does the source give for `COC(=O)c1ccc(C#Cc2ccnc3[nH]ccc23)cc1OC` [compound 122] here?
The IC50 was greater than 1000 nM.

What about the IC50 (VEGFR3) of the same molecule?
Its IC50 is greater than 1000 nM.

And the IC50 (VEGFR2)?
Its IC50 is greater than 1000 nM.

Which results are given for `Nc1cccc(C#Cc2ccnc3[nH]ccc23)c1` [compound 99]?
IC50 (Flt3): > 1000 nM; IC50 (VEGFR3): > 1000 nM; IC50 (VEGFR2): > 1000 nM

Which results are given for `COC(=O)c1ccc(C#Cc2ccnc3[nH]ccc23)cc1` [compound 130]?
IC50 (Flt3): > 1000 nM; IC50 (VEGFR3): > 1000 nM; IC50 (VEGFR2): > 1000 nM

What does the source list for `C#Cc1ccnc2[nH]ccc12` [compound 96]?
IC50 (Flt3): > 1000 nM; IC50 (VEGFR3): > 1000 nM; IC50 (VEGFR2): > 1000 nM

Which results are given for `C[Si](C)(C)C#Cc1ncnc2sc3c(c12)CCCC3` [compound 112]?
IC50 (Flt3): > 1000 nM; IC50 (VEGFR3): > 1000 nM; IC50 (VEGFR2): > 1000 nM

What does the source list for `CN(C)c1ccc(C#Cc2ccnc3[nH]ccc23)cc1` [compound 124]?
IC50 (Flt3): > 1000 nM; IC50 (VEGFR3): > 1000 nM; IC50 (VEGFR2): > 1000 nM

Which IC50 (Flt3) does the source give for `COc1ccc(C#Cc2cnc3[nH]ccc3c2)cc1` [compound 138] here?
Its IC50 is greater than 1000 nM.

And the IC50 (VEGFR3)?
The IC50 was greater than 1000 nM.

And the IC50 (VEGFR2)?
The IC50 was greater than 1000 nM.

With `C(#Cc1ccnc2[nH]ccc12)c1ccc(-c2ccccc2)cc1` [compound 133] as the molecule, how does the IC50 (Flt3) read?
Its IC50 is greater than 1000 nM.

And the IC50 (VEGFR3)?
Its IC50 is greater than 1000 nM.

And the IC50 (VEGFR2)?
Its IC50 is greater than 1000 nM.

How did the IC50 (Flt3) turn out when `FC(F)Oc1ccc(C#Cc2ccnc3[nH]ccc23)cc1` [compound 107] was run?
The IC50 was greater than 1000 nM.

And the IC50 (VEGFR3)?
Its IC50 is greater than 1000 nM.

And the IC50 (VEGFR2)?
Its IC50 is greater than 1000 nM.
